pIC50: −log10 of the molar value.
Target: Macrophage colony-stimulating factor 1 receptor (Homo sapiens, UniProt P07333)
Experiment: Displacement of kinase tracer 236 from recombinant human His-tagged CSF1R cytoplasmic domain (538 to 910 residues) expressed in baculovirus-infected insect cells measured after 5 hrs by TR-FRET based LanthaScreen assay

Macrophage colony-stimulating factor 1 receptor, sequence (P07333 whole entry, the tested form may be a part): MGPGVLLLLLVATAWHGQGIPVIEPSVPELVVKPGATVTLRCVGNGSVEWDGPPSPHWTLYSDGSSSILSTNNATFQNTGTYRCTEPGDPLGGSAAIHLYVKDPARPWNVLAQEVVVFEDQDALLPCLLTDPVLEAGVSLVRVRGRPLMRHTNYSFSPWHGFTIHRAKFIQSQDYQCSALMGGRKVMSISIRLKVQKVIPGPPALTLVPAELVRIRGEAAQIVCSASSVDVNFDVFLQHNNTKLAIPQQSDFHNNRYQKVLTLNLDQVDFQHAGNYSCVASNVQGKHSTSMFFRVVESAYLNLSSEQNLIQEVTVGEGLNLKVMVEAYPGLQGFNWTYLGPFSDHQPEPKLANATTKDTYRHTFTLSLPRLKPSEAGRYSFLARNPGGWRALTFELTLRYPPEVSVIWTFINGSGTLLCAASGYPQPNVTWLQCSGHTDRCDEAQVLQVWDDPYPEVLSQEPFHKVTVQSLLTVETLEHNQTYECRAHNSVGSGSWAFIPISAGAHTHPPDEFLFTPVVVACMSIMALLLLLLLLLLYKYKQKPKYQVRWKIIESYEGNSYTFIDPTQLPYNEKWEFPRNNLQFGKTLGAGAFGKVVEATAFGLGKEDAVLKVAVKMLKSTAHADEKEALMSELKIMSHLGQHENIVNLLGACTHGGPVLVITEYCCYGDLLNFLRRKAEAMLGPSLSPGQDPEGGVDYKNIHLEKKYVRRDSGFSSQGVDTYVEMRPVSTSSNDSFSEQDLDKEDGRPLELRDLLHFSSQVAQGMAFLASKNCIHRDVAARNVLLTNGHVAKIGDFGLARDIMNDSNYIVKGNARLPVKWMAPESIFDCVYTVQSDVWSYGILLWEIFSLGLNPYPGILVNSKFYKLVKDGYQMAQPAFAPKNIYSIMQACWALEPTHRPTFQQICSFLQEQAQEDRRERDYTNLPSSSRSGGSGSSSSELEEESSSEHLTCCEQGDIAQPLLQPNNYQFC

SMILES	pIC50
COc1cc(-n2c3c(c4ncnc(N)c42)CCC3)ccc1NC(=O)Cn1cnc(C(F)(F)F)c1	6.70 to 8.00
COc1cc(-n2c3c(c4ncnc(N)c42)CCC3)ccc1NC(=O)Cc1cc(C(F)F)on1	> 8.00
COc1cc(-n2c3c(c4ncnc(N)c42)CCC3)ccc1NC(=O)Cc1nc(C(C)C)no1	> 8.00
COc1cc(-n2c3c(c4ncnc(N)c42)COC3)ccc1NC(=O)Cc1ccc(C)c(F)c1	> 8.00
CNC(=O)c1ccc(CC(=O)Nc2ccc(-n3c4c(c5ncnc(N)c53)CCC4)cc2OC)cc1	< 6.70
Nc1ncnc2c3c(n(-c4ccc(NC(=O)Cc5cc(C(F)(F)F)no5)cc4)c12)CCC3	> 8.00
COc1cc(-n2c3c(c4ncnc(N)c42)COC3)ccc1NC(=O)Cn1cc(C(C)(C)C)cn1	6.70 to 8.00
COc1cc(-n2c3c(c4ncnc(N)c42)CCC3)ccc1NC(=O)Cn1cc(C(F)(F)F)cn1	> 8.00
COc1cc(-n2c3c(c4ncnc(N)c42)COC3)ccc1NC(=O)Cn1cc(C(F)(F)F)cn1	6.70 to 8.00
COc1cc(-n2c3c(c4ncnc(N)c42)CCC3)ccc1CC(=O)Nc1ccc(C(C)(C)O)nc1	> 8.00
COc1ncc(NC(=O)Cc2ccc(-n3c4c(c5ncnc(N)c53)CCC4)cc2)cc1F	> 8.00
COc1cc(-n2c3c(c4ncnc(N)c42)CCC3)ccc1CC(=O)Nc1cnn(C)c1	< 6.70
COc1cc(-n2c3c(c4ncnc(N)c42)CCC3)ccc1CC(=O)Nc1ccc(C2(O)COC2)cc1	6.70 to 8.00
CC(C)(C)c1ccn(CC(=O)Nc2ccc(-n3c4c(c5ncnc(N)c53)COC4)cc2)n1	6.70 to 8.00
COc1cc(-n2c3c(c4ncnc(N)c42)CCC3)ccc1CC(=O)Nc1ccc2c(c1)COC2(C)C	> 8.00
Nc1ncnc2c3c(n(-c4ccc(NC(=O)Cc5cnn(C(F)F)c5)cc4)c12)CCC3	6.70 to 8.00
Nc1ncnc2c3c(n(-c4ccc(NC(=O)Cn5ccc(C(F)(F)F)n5)cc4)c12)COC3	6.70 to 8.00
Nc1ncnc2c3c(n(-c4ccc(NC(=O)Cn5ccc(C(F)(F)F)n5)cc4)c12)CCC3	> 8.00
Nc1ncnc2c3c(n(-c4ccc(NC(=O)Cc5ccn(C(F)F)n5)cc4)c12)CCC3	6.70 to 8.00
COc1cc(-n2c3c(c4ncnc(N)c42)CCC3)ccc1NC(=O)Cc1ccc(C(=O)N(C)C)cc1	6.70 to 8.00
COc1cc(-n2c3c(c4ncnc(N)c42)CCC3)ccc1NC(=O)Cc1nnccc1C(F)(F)F	< 6.70
COc1cc(-n2c3c(c4ncnc(N)c42)CCC3)ccc1NC(=O)Cc1coc(C(C)C)n1	> 8.00
COc1cc(-n2c3c(c4ncnc(N)c42)CCC3)ccc1CC(=O)Nc1ccc(C(C)(C)O)cn1	6.70 to 8.00

SMILES	pIC50
COc1cc(-n2c3c(c4ncnc(N)c42)COC3)ccc1NC(=O)Cn1nc(C)cc1C(F)(F)F	< 6.70
COc1cc(CC(=O)Nc2ccc(-n3c4c(c5ncnc(N)c53)CCC4)cc2OC)cc(OC)c1	> 8.00
COc1cc(-n2c3c(c4ncnc(N)c42)CCC3)ccc1CC(=O)Nc1cnc(C(F)(F)F)nc1	6.70 to 8.00
COc1cc(-n2c3c(c4ncnc(N)c42)COC3)ccc1NC(=O)Cn1cnc(C(F)(F)F)c1	6.70 to 8.00
COc1cc(-n2c3c(c4ncnc(N)c42)CCC3)ccc1NC(=O)Cc1cc(C(F)(F)F)on1	> 8.00
COc1cc(-n2c3c(c4ncnc(N)c42)CCC3)ccc1NC(=O)Cc1c(C)noc1C	< 6.70
COc1cc(-n2c3c(c4ncnc(N)c42)CCC3)ccc1NC(=O)Cc1cc(C(F)(F)F)no1	> 8.00
COc1cc(-n2c3c(c4ncnc(N)c42)CCC3)ccc1CC(=O)Nc1nc(C(F)(F)F)cs1	> 8.00
COc1cc(-n2c3c(c4ncnc(N)c42)CCC3)ccc1NC(=O)Cn1nc(C)cc1C	6.70 to 8.00
Cn1ncc(CC(=O)Nc2ccc(-n3c4c(c5ncnc(N)c53)CCC4)cc2)c1C(F)(F)F	> 8.00
COc1cc(-n2c3c(c4ncnc(N)c42)COC3)ccc1NC(=O)Cn1ccc(C(C)(C)C)n1	6.70 to 8.00
COc1cc(-n2c3c(c4ncnc(N)c42)CCC3)ccc1NC(=O)Cc1cc(C(F)(F)F)cnn1	6.70 to 8.00
Nc1ncnc2c3c(n(-c4ccc(NC(=O)Cn5cnc(C(F)(F)F)c5)cc4)c12)COC3	> 8.00
COc1cc(-n2c3c(c4ncnc(N)c42)COC3)ccc1NC(=O)Cc1ccc(C)cc1F	> 8.00
COc1cc(-n2c3c(c4ncnc(N)c42)CCC3)ccc1NC(=O)Cc1cnn(C)c1C(F)(F)F	> 8.00
COc1cc(-n2c3c(c4ncnc(N)c42)COC3)ccc1NC(=O)Cn1ccc(C(C)C)n1	> 8.00
Nc1ncnc2c3c(n(-c4ccc(NC(=O)Cc5ccn(C(F)F)n5)cc4)c12)COC3	< 6.70
COc1cc(-n2c3c(c4ncnc(N)c42)CCC3)ccc1NC(=O)Cc1ccc(C(C)(C)C)cc1	6.70 to 8.00
COc1cc(-n2c3c(c4ncnc(N)c42)COC3)ccc1CC(=O)Nc1ccc(C(F)(F)F)nc1	> 8.00
CC(C)c1ccn(CC(=O)Nc2ccc(-n3c4c(c5ncnc(N)c53)CCC4)cc2)n1	> 8.00
COc1cc(-n2c3c(c4ncnc(N)c42)CCC3)ccc1CC(=O)Nc1cc(C(F)(F)F)cnn1	> 8.00
COc1cc(-n2c3c(c4ncnc(N)c42)CCC3)ccc1NC(=O)CN1CCCc2cc(F)ccc21	6.70 to 8.00
Nc1ncnc2c3c(n(-c4ccc(NC(=O)Cc5ccccc5)c(C(F)(F)F)c4)c12)CCC3	< 6.70

SMILES	pIC50
COc1ccc(CC(=O)Nc2ccc(-n3c4c(c5ncnc(N)c53)COC4)cc2OC)c(F)c1	6.70 to 8.00
COc1cc(-n2c3c(c4ncnc(N)c42)CCC3)ccc1CC(=O)Nc1ccn(C)n1	< 6.70
Nc1ncnc2c3c(n(-c4ccc(NC(=O)Cn5cc(C(F)(F)F)cn5)cc4)c12)CCC3	> 8.00
COc1cc(NC(=O)Cc2ccc(-n3c4c(c5ncnc(N)c53)CCC4)cc2OC)cc(C(F)(F)F)c1	> 8.00
COc1cc(-n2c3c(c4ncnc(N)c42)COC3)ccc1NC(=O)Cn1ncc2ccccc21	6.70 to 8.00
COc1cc(-n2c3c(c4ncnc(N)c42)COC3)ccc1NC(=O)Cc1cccc(OC)c1C	> 8.00
COc1cc(-n2c3c(c4ncnc(N)c42)COC3)ccc1CC(=O)Nc1ccccc1	< 6.70
Nc1ncnc2c3c(n(-c4ccc(NC(=O)Cn5cnc(C(F)(F)F)c5)cc4)c12)CCC3	> 8.00
COc1cc(-n2c3c(c4ncnc(N)c42)CCC3)ccc1NC(=O)Cc1cc(C(F)(F)F)nn1C	6.70 to 8.00
COc1cc(-n2c3c(c4ncnc(N)c42)COC3)ccc1NC(=O)Cc1cnn(C)c1C(F)(F)F	< 6.70
COc1cc(-n2c3c(c4ncnc(N)c42)CCC3)ccc1CC(=O)Nc1ccc2nonc2c1	> 8.00
CC(C)(C)c1cnn(CC(=O)Nc2ccc(-n3c4c(c5ncnc(N)c53)COC4)cc2)c1	> 8.00
COc1cc(-n2c3c(c4ncnc(N)c42)CCC3)ccc1NC(=O)Cc1cnn(C)c1	6.70 to 8.00
Nc1ncnc2c3c(n(-c4ccc(NC(=O)Cc5nnc(C(F)(F)F)o5)cc4)c12)CCC3	< 6.70
COc1cc(-n2c3c(c4ncnc(N)c42)CCC3)ccc1NC(=O)Cn1cc(C(F)(F)F)nc1C	6.70 to 8.00
Nc1ncnc2c3c(n(-c4ccc(NC(=O)Cn5ccc(C6CC6)n5)cc4)c12)CCC3	> 8.00
COc1cc(-n2c3c(c4ncnc(N)c42)CCC3)ccc1NC(=O)Cn1ccc(C2CC2)n1	> 8.00
Nc1ncnc2c3c(n(-c4ccc(NC(=O)Cc5cc(C(F)F)on5)cc4)c12)CCC3	6.70 to 8.00
COc1cc(-n2c3c(c4ncnc(N)c42)COC3)ccc1NC(=O)Cc1csc(C(C)C)n1	6.70 to 8.00
COc1cc(-n2c3c(c4ncnc(N)c42)CCC3)ccc1NC(=O)Cc1nnn(C(C)(C)C)n1	> 8.00
COc1cc(-n2c3c(c4ncnc(N)c42)CCC3)ccc1CC(=O)Nc1cnc(OC)c(F)c1	> 8.00
COc1cc(-n2c3c(c4ncnc(N)c42)CCC3)ccc1NC(=O)Cc1csc(C(C)C)n1	> 8.00
COc1cc(-n2c3c(c4ncnc(N)c42)CCC3)ccc1NC(=O)Cn1nc(C)cc1C(F)(F)F	6.70 to 8.00

SMILES	pIC50
COc1cc(-n2c3c(c4ncnc(N)c42)CCC3)ccc1NC(=O)Cc1cnn(C(F)F)c1	> 8.00
Cn1nc(C(F)(F)F)cc1CC(=O)Nc1ccc(-n2c3c(c4ncnc(N)c42)CCC3)cc1	> 8.00
COc1cc(-n2c3c(c4ncnc(N)c42)CCC3)ccc1NC(=O)Cn1ccc(C(F)(F)F)n1	> 8.00
Nc1ncnc2c3c(n(-c4ccc(NC(=O)Cn5cc(C(F)(F)F)cn5)cc4)c12)COC3	6.70 to 8.00
COc1cc(-n2c3c(c4ncnc(N)c42)CCC3)ccc1CC(=O)Nc1ccc(C(C)(C)OC)nc1	> 8.00
COc1cc(-n2c3c(c4ncnc(N)c42)CCC3)ccc1NC(=O)Cc1ccn(C)n1	< 6.70
COc1cc(-n2c3c(c4ncnc(N)c42)CCC3)ccc1NC(=O)Cn1ccc(C(C)(C)C)n1	> 8.00
CC(C)c1noc(CC(=O)Nc2ccc(-n3c4c(c5ncnc(N)c53)CCC4)cc2)n1	6.70 to 8.00
COc1cc(CC(=O)Nc2ccc(-n3c4c(c5ncnc(N)c53)COC4)cc2OC)cc(OC)c1	6.70 to 8.00
CC(C)(C)c1cnn(CC(=O)Nc2ccc(-n3c4c(c5ncnc(N)c53)CCC4)cc2)c1	> 8.00
COc1cc(-n2c3c(c4ncnc(N)c42)COC3)ccc1NC(=O)Cn1ccc(C(F)(F)F)n1	6.70 to 8.00
COc1cc(-n2c3c(c4ncnc(N)c42)CCC3)ccc1CC(=O)Nc1ccc(C(C)(C)C)cc1	> 8.00
COc1cc(-n2c3c(c4ncnc(N)c42)CCC3)ccc1NC(=O)CN1CCOc2ccccc21	6.70 to 8.00
COc1cc(-n2c3c(c4ncnc(N)c42)CCC3)ccc1NC(=O)Cc1ccn(C(F)F)n1	> 8.00
Nc1ncnc2c3c(n(-c4ccc(NC(=O)Cc5cc(C(F)(F)F)on5)cc4)c12)CCC3	> 8.00
COc1cc(-n2c3c(c4ncnc(N)c42)COC3)ccc1NC(=O)Cc1cc(C(F)(F)F)on1	6.70 to 8.00
Nc1ncnc2c3c(n(-c4ccc(NC(=O)Cc5ccccc5)c(OC(F)(F)F)c4)c12)CCC3	< 6.70
Nc1ncnc2c3c(n(-c4ccc(NC(=O)Cc5ccccc5)c(Cl)c4)c12)CCC3	< 6.70
COc1cc(-n2c3c(c4ncnc(N)c42)CCC3)ccc1NC(=O)Cc1ccc2c(c1)CN(C)C2=O	< 6.70
COc1cc(-n2c3c(c4ncnc(N)c42)CCC3)ccc1NC(=O)Cn1cc(C)cn1	> 8.00
CNC(=O)c1cccc(NC(=O)Cc2ccc(-n3c4c(c5ncnc(N)c53)CCC4)cc2OC)c1	6.70 to 8.00
COc1cc(-n2c3c(c4ncnc(N)c42)COC3)ccc1NC(=O)Cc1csc(C(C)(C)C)n1	6.70 to 8.00
